In US20190031618A1, “BENZIMIDAZOLE DERIVATIVES USEFUL AS CB-1 INVERSE AGONISTS” (Janssen Pharmaceutica NV, priority 2015, published 2019) one finds EC50 and IC50 data, which are given here for 22 compounds.

Test [1] concerns the target Human CB1R (Cannabinoid receptor 1) (Homo sapiens, UniProt P21554). In words: CB-1 in vitro cAMP (HTRF) assay. The following applies: for EC50: HEK cells, cAMP HTRF, 250 nM forskolin, mean where tested more than once, read-out: CB1 HEK_cAMP EC50. In kind it is cell-based. From the text: (§1) CB1 and CB2 receptors are Gi-coupled GPCR. Activation of CB1 and CB2 receptors results in a decrease in cAMP production. An inverse agonist of the CB1 or CB2 receptor results in the opposite effect, an increase of cAMP production. The principle of this assay is based on HTRF® technology (Homogeneous Time-Resolved Fluorescence). The method is a competitive immunoassay between native cAMP produced by cells and the cAMP labeled with the fluorophore d2. The tracer binding is quantified by a Mab anti-cAMP labeled with Eu3+TBP-NHS Cryptate (supplied as part of the assay kit). The specific signal (i.e. energy transfer) is inversely proportional to the concentration of cAMP in the standard or sample.
Human CB1R (Cannabinoid receptor 1) was stably transfected in HEK-293 cells (DiscoveRx, cat: 93-0200C1). Human CB2R (Cannabinoid receptor 2) was stably transfected in HEK-293 cells (DiscoveRx, cat: 93-0201C1).
One day prior to experiments media was warmed to 37° C. and the cryo-stored cells were thawed in a 37° C. water bath. The cells were then added to media (10× volume) and the mixture was centrifuged at 1000 RPM for 5 min. The supernate was removed and the cells were re-suspended in media. A sample of the cell suspension was evaluated on a Cedex XS automated cell counter (Innovatis Systems) to determine viable cells/ml. Additional media was added to the cells to achieve a final cell density of 4E5 cells/mL. […] Cells were removed from Row P (location of cAMP standards). […] The cell plates were lidded and stored for 15 minutes in a hood, then transferred to an incubator (37° C., 5% CO2, 95% humidity) overnight.
Test compounds (60 μL, 10 mM) were added to Column 1 and 13 (A1 through N1 and A13 through L13). Test compounds were serially diluted 1/3 by transferring and mixing 20 μl sample with 40 μL DMSO.
DMSO (40 μL) was added to wells of 384 well V bottom polystyrene plate: O2 through O11, M14 through M23, N14 through N23, and O14 through O23. […] The control was serially diluted 1/3 by transferring and mixing 20 μl sample with 40 μL DMSO. This process resulted 11 doses per control, 10 mM to 0.5 μM.
Cells plated the day prior to the assay in clear bottom plates were viewed on an inverse microscope to ensure confluency in the range of 60-75%.
A FLEXDROP (Perkin Elmer) was cleaned with ethanol then water, and primed with Buffer 2. A 384 well V bottom polypropylene plate containing d2 labelled cAMP and a second 384 well V bottom polypropylene plate containing anti-cAMP was prepared (50 μl per well). Media as “dumped” from the cell plate and 30 μL Buffer 1 was added to each well using a Multidrop. The content of the cell plate was again “dumped” and 10 μL Buffer 2 was added to each well using a Flexdrop. […] The cell plate was mixed (Speed 6, Lab-Line Instruments Titer Plate Shaker) and centrifuged (1000 RPMs, 1 min). […] The cell plate was again mixed (speed 6) and centrifuged (1000 RPMs, 1 min). The cell plate was incubated for 30 minutes at room temperature (˜27° C.). The contents of row P were removed and the cAMP standard dilutions were added in duplicate to Row P (P1-12 and P13-24). After incubation, 6 μL d2 labelled cAMP and 6 μL of Anti-cAMP were added to all wells of the cell plate using a BioMek FX (Beckman Coulter). The cell plate was again mixed (speed 6) and centrifuged (1000 RPMs, 1 min) and was incubated for 60 minutes in the dark at room Temp (˜27° C.).
After this final incubation, the cell plate was read in HTRF mode (fluorescence at 665 nm and 620 nm) on an Envision plate Reader (Perkin Elmer). The Envision reader outputs a ratio of channel 1/channel 2 fluorescence×10,000 (Normalized signal (NS)). Amount of cAMP in nM was calculated for each well (based on NS) from a cAMP standard curve located on each plate (at P1-12 and P13-24). EC50 values were determined from a 4-point fit (Hill equation) of a single 11-point compound dosing. Hill slope was fixed at 1.0.

The target in test [2] is Human CB2R (Cannabinoid receptor 2) (Homo sapiens, UniProt P34972). Kind of test: CB-2 in vitro cAMP (HTRF) assay. In kind it is cell-based. The following applies: for EC50: HEK cells, cAMP HTRF, 250 nM forskolin, mean where tested more than once, read-out: CB2 HEK_cAMP EC50.
Human CB2R (Cannabinoid receptor 2), sequence (P34972 whole entry): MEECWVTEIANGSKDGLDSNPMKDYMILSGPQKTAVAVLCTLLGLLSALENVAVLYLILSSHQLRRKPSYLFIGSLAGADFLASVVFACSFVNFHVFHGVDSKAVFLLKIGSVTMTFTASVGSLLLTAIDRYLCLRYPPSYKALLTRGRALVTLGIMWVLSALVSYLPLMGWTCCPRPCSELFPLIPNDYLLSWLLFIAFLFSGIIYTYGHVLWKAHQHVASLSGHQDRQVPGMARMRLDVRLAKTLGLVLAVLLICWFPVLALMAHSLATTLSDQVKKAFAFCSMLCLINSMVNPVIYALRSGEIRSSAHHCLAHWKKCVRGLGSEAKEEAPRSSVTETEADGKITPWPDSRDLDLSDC
Text: as §1
Human CB1R (Cannabinoid receptor 1) was stably transfected in HEK-293 cells (DiscoveRx, cat: 93-0200C1). Human CB2R (Cannabinoid receptor 2) was stably transfected in HEK-293 cells (DiscoveRx, cat: 93-0201C1). Cell cultures were maintained in media: DMEM (Invitrogen Cat#12430-054) supplemented with 10% HI FBS (Invitrogen Cat#16140-071), 1% L-glutamine (Invitrogen Cat#25030-081), 0.2 mg/ml Hygromycin B (Invitrogen Cat#10687-010), 600 μg/mL G418 (Invitrogen Cat#10131-035), and 1× Penn/Strep (Invitrogen 15140-122). After cell expansion, aliquots were cryo-stored in media containing 5% DMSO (Pierce Cat#20684).
One day prior to experiments media was warmed to 37° C. and the cryo-stored cells were thawed in a 37° C. water bath. The cells were then added to media (10× volume) and the mixture was centrifuged at 1000 RPM for 5 min. The supernate was removed and the cells were re-suspended in media. A sample of the cell suspension was evaluated on a Cedex XS automated cell counter (Innovatis Systems) to determine viable cells/ml. Additional media was added to the cells to achieve a final cell density of 4E5 cells/mL. The cells were then plated into 384 well PDL white solid bottom plates (Greiner, Cat#781945) at 20 μL per well using a Multidrop (Thermo Scientific). Cells were removed from Row P (location of cAMP standards). Two columns of cells were plated into a clear bottom 384 well PDL coated plate (Greiner, Cat#781944) to view confluence the day of the assay. The cell plates were lidded and stored for 15 minutes in a hood, then transferred to an incubator (37° C., 5% CO2, 95% humidity) overnight.
DMSO was added to all wells of 384 well V bottom polystyrene plate (Greiner, Cat#781280) except to columns 1 and 13, rows O and P and wells M13-M23 and N13-N23. Test compounds (60 μL, 10 mM) were added to Column 1 and 13 (A1 through N1 and A13 through L13). Test compounds were serially diluted 1/3 by transferring and mixing 20 μl sample with 40 μL DMSO.
DMSO (40 μL) was added to wells of 384 well V bottom polystyrene plate: O2 through O11, M14 through M23, N14 through N23, and O14 through O23. AM630 (also known as [6-iodo-2-methyl-1-[2-(4-morpholinyl)ethyl]-1H-indol-3-yl](4-methoxyphenyl)-methanone, Cayman Chemical, Cat#10006974) (60 μL, 10 mM) was added to O1; and 1-(2,4-dichlorophenyl)-7-[(4-fluorophenyl)methylene]-4,5,6,7-tetrahydro-N-1-piperidinyl-1H-benzimidazole-3-carboxamide (60 μL, 10 mM) was added to N13. The control was serially diluted 1/3 by transferring and mixing 20 μl sample with 40 μL DMSO. This process resulted 11 doses per control, 10 mM to […].
Cells plated the day prior to the assay in clear bottom plates were viewed on an inverse microscope to ensure confluency in the range of 60-75%. […]

Human CB1R (Cannabinoid receptor 1), sequence (P21554 whole entry): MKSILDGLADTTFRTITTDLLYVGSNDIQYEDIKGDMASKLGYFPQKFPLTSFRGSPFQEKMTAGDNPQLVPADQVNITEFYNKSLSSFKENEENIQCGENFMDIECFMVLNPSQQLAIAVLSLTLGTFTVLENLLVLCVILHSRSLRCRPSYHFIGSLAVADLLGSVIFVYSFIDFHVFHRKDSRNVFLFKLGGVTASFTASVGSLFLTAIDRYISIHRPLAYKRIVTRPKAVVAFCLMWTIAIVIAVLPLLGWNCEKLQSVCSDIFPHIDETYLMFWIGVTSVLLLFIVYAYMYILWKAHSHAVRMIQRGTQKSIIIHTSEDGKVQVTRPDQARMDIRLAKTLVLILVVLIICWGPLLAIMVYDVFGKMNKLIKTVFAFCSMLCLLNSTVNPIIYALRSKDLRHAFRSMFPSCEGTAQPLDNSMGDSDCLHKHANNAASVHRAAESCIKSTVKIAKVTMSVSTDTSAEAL

For `Oc1ccc(CCn2c(C3CC3)nc3ccc(C(c4ccc(Cl)cc4)c4ccc(Cl)cc4)cc32)cc1` [Example 37], the half-maximal effective concentration (EC50) in test [1] was found to be 0.0876 µM; in test [2], 7.26 µM.

For the compound `COCC(c1ccc(Cl)cc1)(c1ccc(Cl)cc1)c1ccc2nc(C3CC3)n(C3CCN(S(=O)(=O)c4ccc(C(=O)O)c(Cl)c4)CC3)c2c1` [Example 178], the EC50 in test [1] is 0.0675 µM; in test [2], over 10 µM.

Take `CCc1nc2ccc(C(O)(c3ccc(Cl)cc3)c3ccc(Cl)cc3)cc2n1C1CCN(S(=O)(=O)C(F)(F)F)CC1` [Example 308]: the EC50 is 0.0636 µM in test [1] and over 10 µM in test [2].

Consider `Clc1ccc(Cn2c(-c3ccc(Cl)cc3)nc3ccc(C(c4ccc(Cl)cc4)c4nccs4)cc32)cc1` (centres unmarked) [Example 464], for which the 50% effective concentration (EC50) is 0.212 µM in test [1] and over 7.2 µM in test [2].

On to `CCc1csc(C(c2ccc(Cl)cc2)c2ccc3ncn(Cc4ccc(Cl)cc4)c3c2)n1` (centres unmarked) [Example 460], for which the EC50 in test [1] and in test [2] was over 10 µM throughout.

For the compound `O=C(OC1CCCC1)N1CCC(n2c(C3CC3)nc3ccc(C(c4ccc(Cl)cc4)c4ccc(Cl)cc4)cc32)CC1` [Example 71], the EC50 was determined as 0.0274 µM in test [1] and 4.88 µM in test [2].

In the case of `O=S(=O)(c1cccc(C(F)(F)F)c1)N1CCC(n2c(C3CC3)nc3ccc(C(c4ccc(Cl)cc4)c4ccc(Cl)cc4)cc32)CC1` [Example 284], the EC50 is 0.0057 µM in test [1] and over 10 µM in test [2].

For the compound `NC(=O)c1cncc(CN2CCC(n3c(C4CC4)nc4ccc(C(c5ccc(Cl)cc5)c5ccc(Cl)cc5)cc43)CC2)c1` [Example 121], the concentration giving a half-maximal response (EC50) in test [1] was determined as 0.0051 µM; in test [2], 7.97 µM.

Regarding `CCOC(=O)N1CCC(n2c(-c3ccc(Cl)cc3Cl)nc3ccc(C(c4ccc(Cl)cc4)c4nccs4)cc32)CC1` (centres unmarked) [Example 443], the EC50 was found to be 1.43 µM in test [1] and 4.95 µM in test [2].

Regarding `O=C(NCc1ccccc1)N1CCC(n2c(C3CC3)nc3ccc(C(c4ccc(Cl)cc4)c4ccc(Cl)cc4)cc32)CC1` [Example 75], the concentration giving a half-maximal response (EC50) in test [1] is 0.0357 µM; in test [2], 1.15 µM.

Take `Cc1nc2ccc(C(c3ccc(Cl)cc3)c3nccs3)cc2n1CCc1cccc(Cl)c1` (centres unmarked) [Example 437]: the EC50 is 0.192 µM in test [1] and over 10 µM in test [2].

As to `O=C(O)COc1ccc(Cn2c(C3CC3)nc3ccc(C(c4ccc(Cl)cc4)c4ccc(Cl)cc4)cc32)cc1` [Example 176], the EC50 in test [1] and in test [2] was over 10 µM in each case.

Turning to `O=S(=O)(N1CCC(Cn2c(C3CCC3)nc3ccc(C(c4ccc(Cl)cc4)c4ccc(Cl)cc4)cc32)CC1)C(F)(F)F` [Example 288], the EC50 in test [1] was 0.0023 µM; in test [2] it was over 10 µM.

For the compound `COC(=O)CCNC(=O)c1cccc(S(=O)(=O)N2CCC(n3c(C4CC4)nc4ccc(C(c5ccc(Cl)cc5)c5ccc(Cl)cc5)cc43)CC2)c1` [Example 203], the results for the EC50 in test [1] and in test [2] were 0.0324 µM and over 10 µM, respectively.

For the compound `NC(=O)c1ccccc1S(=O)(=O)N1CCC(n2c(C3CC3)nc3ccc(C(c4ccc(Cl)cc4)c4ccc(Cl)cc4)cc32)CC1` [Example 243], the half-maximal effective concentration (EC50) in test [1] is 0.0359 µM; in test [2], 0.347 µM.

For `O=C(O)c1cc(OCCn2c(C3CC3)nc3ccc(C(c4ccc(Cl)cc4)c4ccc(Cl)cc4)cc32)cc(C(F)(F)F)c1` [Example 16], the figures for the 50% effective concentration (EC50) in test [1] and in test [2] were 0.173 µM and 0.698 µM, respectively.

As for `O=S(=O)(c1cccc(NCCOCCOCc2ccccc2)c1)N1CCC(n2c(C3CC3)nc3ccc(C(c4ccc(Cl)cc4)c4ccc(Cl)cc4)cc32)CC1` [compound of formula (II), N-(2-(2-(benzyloxy)ethoxy)ethyl)-3-((4-(6-(bis(4-chlorophenyl)methyl)-2-cyclopropyl-1H-benzo[d]imidazol-1-yl)piperidin-1-yl)sulfonyl)aniline], the half-inhibitory concentration (IC50) in test [1] (first line of the list, HEK-293 cells, cAMP, 250 nM Forskolin) is 0.0135 µM; in test [2] (second line, the sentence announces activity against CB-1 and CB-2, read-out: CB-1 receptor: IC50 (second line of the list)), over 10 µM.

Take `O=S(=O)(N1CCC(n2cnc3ccc(C(c4ccc(Cl)cc4)c4nccs4)cc32)CC1)C(F)(F)F` (centres unmarked) [Example 398]: the EC50 was 0.021 µM in test [1] and over 10 µM in test [2].

In the case of `O=C(O)c1cccc(CN2CCC(n3c(C4CC4)nc4ccc(C(c5ccc(Cl)cc5)c5ccc(C(F)(F)F)cc5)cc43)CC2)c1` (centres unmarked) [Example 99], the concentration for a half-maximal effect (EC50) in test [1] was 0.0188 µM; in test [2], 4.74 µM.

Take `NC(=O)COc1ccc(-n2c(C3CC3)nc3ccc(C(c4ccc(Cl)cc4)c4ccc(Cl)cc4)cc32)cc1` [Example 169]: the concentration for a half-maximal effect (EC50) in test [1] is 0.045 µM; in test [2], 7.9 µM.

On to `O=S(=O)(CCN1CCNCC1)N1CCC(n2c(C3CC3)nc3ccc(C(c4ccc(Cl)cc4)c4ccc(Cl)cc4)cc32)CC1` [Example 45], for which the EC50 was 0.593 µM in test [1] and over 42 µM in test [2].

Regarding `COC(=O)c1ccc(OCCn2c(C3CC3)nc3ccc(C(c4ccc(Cl)cc4)c4ccc(Cl)cc4)cc32)cc1` [Example 36], the figures for the half-maximal effective concentration (EC50) in test [1] and in test [2] were 0.0854 µM and 0.869 µM, respectively.
